Among the test systems are SNB-75; SF-539; RPMI-8226; RXF 393; KM12; MDA-MB-435; BT-549; K562; LOX IMVI; HOP-62; SK-MEL-28; SK-MEL-2; MCF7; Hs-578T; NCI-H23; TK-10; IGROV-1; HL-60; HOP-92; SK-MEL-5.
Common to all, as to assay: NCI tumour cell line growth inhibition, 48 h

Molecules are shown by their SMILES.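 Compound exposure: 48 hours, 5 concentrations, 96-well plates. Abbreviation: GI50, concentration required for 50% inhibition of growth.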 The source made the active and inactive calls. Rule as the data show it: active = GI50 up to about 1.1 µM and inactive = higher.

On to `Cc1n[nH]c(=O)n1/N=C/c1cccs1`, for which the GI50 in the test on SNB-75, in the test on SF-539, in the test with RPMI-8226, in the test with RXF 393, in the test with KM12 and in the test on MDA-MB-435 was > 100 µM (inactive) throughout. The GI50 in the test on BT-549, in the test with K562, in the test with LOX IMVI, in the test on HOP-62, in the test with SK-MEL-28 and with SK-MEL-2 was > 100 µM (inactive) each time. In addition, the GI50 with MCF7 is > 100 µM (inactive); in the test on Hs-578T, 36.5 µM (inactive); in the test with NCI-H23 it was > 100 µM (inactive).

Consider `COC(=O)N1CC(=O)C(C(=O)NC23CC4CC(CC(C4)C2)C3)C1` (configuration not stated), for which the GI50 with SF-539 is 72.9 µM (inactive); in the test with RPMI-8226 it was 32.8 µM (inactive); in the test with RXF 393, 82 µM (inactive); in the test on KM12 it was 41.8 µM (inactive); in the test with TK-10 it was > 100 µM (inactive); in the test with MDA-MB-435 it was > 100 µM (inactive). Further, the GI50 with BT-549 is 66.7 µM (inactive); with K562, 55.2 µM (inactive); with IGROV-1 it was > 100 µM (inactive); in the test with HL-60 it was 32.1 µM (inactive); with HOP-92, > 100 µM (inactive); in the test on SK-MEL-28, 66.4 µM (inactive). For the same compound, the GI50 with SK-MEL-2 is 77.3 µM (inactive); with MCF7, 45.3 µM (inactive); in the test on SK-MEL-5, 45.6 µM (inactive); with NCI-H23 it was > 100 µM (inactive).

`CN(C)C(=O)C(F)(F)C(c1ccccc1Br)C1C(=O)N(C)C(=O)N(C)C1=O` (configuration not stated): the GI50 with SNB-75, in the test with RPMI-8226, in the test with RXF 393, with KM12, with TK-10 and in the test with MDA-MB-435 was > 100 µM (inactive) throughout. Further, the GI50 in the test on BT-549, in the test with K562, in the test with LOX IMVI, in the test on HOP-92, with HOP-62 and in the test on SK-MEL-28 was > 100 µM (inactive) in each case. Besides, the GI50 in the test with SK-MEL-2, in the test with MCF7, in the test on SK-MEL-5 and in the test with NCI-H23 was > 100 µM (inactive) in each case.

For `COc1nc(C)nc2sc3c(c12)CCCC3`, the GI50 in the test with SNB-75 is 93.3 µM (inactive); in the test on RPMI-8226 it was 55.3 µM (inactive); in the test with RXF 393, > 100 µM (inactive); in the test with KM12 it was > 100 µM (inactive); in the test with TK-10 it was > 100 µM (inactive); in the test on MDA-MB-435, > 100 µM (inactive). The GI50 with BT-549, in the test on K562, in the test on IGROV-1, with LOX IMVI, in the test on HL-60 and in the test on HOP-62 was > 100 µM (inactive) in each case. The GI50 in the test with SK-MEL-28, with SK-MEL-2, in the test with MCF7, in the test with SK-MEL-5, with Hs-578T and in the test on NCI-H23 was > 100 µM (inactive) throughout.

On to `CC(=O)OC12c3ccccc3C(c3ccccc31)C1C(=O)N(c3ccccn3)C(=O)C12` (configuration not stated), for which the GI50 is 23.8 µM (inactive) in the test with SNB-75; > 100 µM (inactive) in the test on SF-539; 27.1 µM (inactive) in the test on RPMI-8226; > 100 µM (inactive) in the test with RXF 393; 50.1 µM (inactive) in the test on KM12; > 100 µM (inactive) in the test with TK-10. Also, the GI50 was 38.8 µM (inactive) in the test with BT-549; 39.1 µM (inactive) in the test with K562; > 100 µM (inactive) with IGROV-1; > 100 µM (inactive) in the test on LOX IMVI; 33.5 µM (inactive) in the test on HL-60; 65.6 µM (inactive) in the test with HOP-62. In addition, the GI50 in the test on SK-MEL-28 is 85.9 µM (inactive); in the test on MCF7 it was > 100 µM (inactive); in the test on SK-MEL-5 it was 27.9 µM (inactive); with Hs-578T, 14.3 µM (inactive); in the test with NCI-H23, > 100 µM (inactive).

Turning to `O=C(O)C1CCCCN1CCc1c[nH]c2ccccc12` (configuration not stated), the GI50 with SNB-75, in the test with SF-539, in the test on RPMI-8226, in the test with RXF 393, with KM12 and in the test on TK-10 was > 100 µM (inactive) throughout. In addition, the GI50 in the test on MDA-MB-435, in the test with BT-549, in the test on K562, in the test on IGROV-1, with LOX IMVI and in the test on HL-60 was > 100 µM (inactive) in each case. Moreover, the GI50 was 30.7 µM (inactive) in the test on HOP-92; > 100 µM (inactive) with HOP-62; > 100 µM (inactive) with SK-MEL-28; > 100 µM (inactive) in the test with SK-MEL-2; > 100 µM (inactive) with MCF7; > 100 µM (inactive) with NCI-H23.

For `CCOC(=O)CCCSCCCC(=O)CCCSCCCC(=O)OCC`, the GI50 with SNB-75, in the test on SF-539, in the test on KM12, in the test with TK-10, in the test with MDA-MB-435 and in the test on BT-549 was > 100 µM (inactive) each time. In addition, the GI50 in the test on K562, with IGROV-1, in the test on LOX IMVI, in the test with HL-60, in the test on HOP-92 and in the test with HOP-62 was > 100 µM (inactive) in each case. Besides, the GI50 in the test with SK-MEL-28, in the test with MCF7, in the test with SK-MEL-5 and in the test on NCI-H23 was > 100 µM (inactive) each time.

Turning to `O=c1[nH]nc(-c2cccc([N+](=O)[O-])c2)[nH]1`, the GI50 in the test on SNB-75, in the test on SF-539, with RPMI-8226, with RXF 393, in the test on KM12 and in the test with TK-10 was > 100 µM (inactive) in each case. The GI50 in the test on MDA-MB-435, in the test on BT-549, in the test with K562, in the test with IGROV-1, in the test with LOX IMVI and with HL-60 was > 100 µM (inactive) throughout. Moreover, the GI50 in the test on HOP-62 was > 100 µM (inactive); in the test on SK-MEL-28 it was > 100 µM (inactive); in the test with SK-MEL-2, > 100 µM (inactive); with MCF7, > 100 µM (inactive); in the test with Hs-578T it was 47.3 µM (inactive); with NCI-H23 it was > 100 µM (inactive).

For the compound `Cc1cc(N(CCC#N)CCC#N)ccc1C(/N=N/c1ccc(Cl)cc1)=N\NC(=O)c1cc(Cl)ccc1O`, the GI50 in the test with SNB-75 is 30.1 µM (inactive); with SF-539, 25 µM (inactive); with RPMI-8226 it was > 100 µM (inactive); with RXF 393 it was 22.2 µM (inactive); in the test on KM12, 58.9 µM (inactive); in the test on TK-10 it was 30 µM (inactive). Besides, the GI50 in the test on MDA-MB-435 is > 100 µM (inactive); in the test on BT-549, 36.7 µM (inactive); in the test on K562, 76.2 µM (inactive); in the test on IGROV-1, 30.6 µM (inactive); in the test on HOP-62 it was 20.5 µM (inactive); with SK-MEL-2, 67 µM (inactive). The GI50 in the test with MCF7 was 29.4 µM (inactive); with SK-MEL-5, > 100 µM (inactive); in the test on Hs-578T, 19.5 µM (inactive); with NCI-H23 it was 40.2 µM (inactive).

Regarding `CO[C@H]1C[C@H](n2cc(C)c(=O)[nH]c2=O)O[C@@H]1CO`, the GI50 in the test with SNB-75, with SF-539, in the test with RPMI-8226, with RXF 393, in the test with KM12 and in the test with TK-10 was > 100 µM (inactive) throughout. Further, the GI50 in the test with MDA-MB-435, in the test on BT-549, with K562, in the test on IGROV-1, with LOX IMVI and in the test with HL-60 was > 100 µM (inactive) each time. In addition, the GI50 in the test on HOP-62, in the test with SK-MEL-28, with MCF7, with SK-MEL-5, in the test on Hs-578T and with NCI-H23 was > 100 µM (inactive) each time.

Regarding `O=C(/C=C/c1ccccc1)Oc1ccc(C(=O)/C=C/c2ccc(Cl)cc2)cc1`, the GI50 in the test on SNB-75 is 75.3 µM (inactive); with SF-539, 28 µM (inactive); in the test with RPMI-8226 it was 43.3 µM (inactive); with RXF 393, 97.3 µM (inactive); in the test on KM12, 33.8 µM (inactive); in the test on TK-10, > 100 µM (inactive). Moreover, the GI50 with MDA-MB-435 is 25.1 µM (inactive); in the test with BT-549 it was 25.8 µM (inactive); in the test on K562, 87.3 µM (inactive); in the test with IGROV-1, > 100 µM (inactive); with HL-60 it was 71.1 µM (inactive); with HOP-62, > 100 µM (inactive). Besides, the GI50 with SK-MEL-28 was > 100 µM (inactive); in the test on SK-MEL-2, > 100 µM (inactive); with MCF7 it was 36.4 µM (inactive); in the test on SK-MEL-5 it was 83.4 µM (inactive).

Consider `CC(C)C[C@H](NC(=O)[C@H](Cc1ccccc1)NC(=O)c1cnccn1)B(O)O` [BORTEZOMIB], for which the GI50 in the test with SNB-75 is < 0.01 µM (active); with SF-539, < 0.01 µM (active); in the test with RPMI-8226, 0.01 µM (active); with RXF 393 it was < 0.01 µM (active); in the test with KM12, < 0.01 µM (active); in the test on TK-10 it was < 0.01 µM (active). In addition, the GI50 with MDA-MB-435 was < 0.01 µM (active); in the test with BT-549, < 0.01 µM (active); with K562, < 0.01 µM (active); in the test with IGROV-1, < 0.01 µM (active); in the test with LOX IMVI, 0.01 µM (active); in the test with HL-60, < 0.01 µM (active). Moreover, the GI50 in the test on HOP-92 was < 0.01 µM (active); in the test on HOP-62, < 0.01 µM (active); in the test with SK-MEL-28, < 0.01 µM (active); in the test with SK-MEL-2, 0.01 µM (active); in the test with MCF7 it was < 0.01 µM (active); with NCI-H23, < 0.01 µM (active).

The values are drawn from ChEMBL document CHEMBL1201862, “PubChem BioAssay data set” (2004).
